Laboratory results as given in patent US11951131B2, “Anti-SLAMF7 chimeric antigen receptors” (The United States of America, as represented by the …, priority 2018, dated 2024).

Columns and labels:
Format in all cases: cell-based, human
SLAMF7^+ MM.1S cells = assay: CD107a degranulation assay; settings: CD4^+ and CD8^+ T cells, cultured with MM.1S versus NGFR-K562, 4 hours
Description: For each T cell culture that was tested, two tubes were prepared. One tube contained MM.1S cells, and the other tube contained NGFR-K562 cells. Both tubes contained CAR-transduced T cells, 1 ml of AIM V™ medium (Invitrogen) plus 5% human AB serum, a titrated concentration of an anti-CD107a antibody (eBioscience, clone eBioH4A3, ThermoFisher Scientific), and 1 μL of GOLGISTOP™ (a protein transport inhibitor containing monensin, BD Biosciences). All tubes were incubated at 37° C. for 4 hours and then stained for CD3, CD4, and CD8.

Panc 10.05 = assay: IFN-gamma ELISA, CAR T cells with Panc 10.05 target cells; settings: Table B-2
Excerpt: (§1) MM.1S is a SLAMF7^+ multiple myeloma cell line that was obtained from American Type Culture Collection (ATCC). A549 is a BCMA-negative lung cancer cell line (ATCC). TC71 is a BCMA-negative sarcoma cell line. CCRF-CEM, 293T, and A549 are SLAMF7-negative cell lines (ATCC). COL0207, HepG2, U251, Panc10.05, and TC71 are […] that were kind gifts from Dr. Steven Rosenberg, National Cancer Institute. SLAMF7-K562 are K562 cells (ATCC) which were transduced with the gene for full-length SLAMF7. SLAMF7-RPMI are RPMI8226 cells (ATCC) which were transduced with the gene for full-length SLAMF7. NGFR-K562 are K562 cells which were transduced with the gene for low-affinity nerve growth factor (Kochenderfer et al., J. Immunother., 32(7): 689-702 (2009)). All of the human samples mentioned were obtained from patients enrolled in IRB-approved clinical trials at the National Cancer Institute.
(§2) One-hundred thousand SLAMF7^+ or SLAMF7-negative target cells were combined with 100,000 CAR-transduced T cells in duplicate wells of a 96 well round bottom plate in 200 µL of AIM V™ medium (Invitrogen) plus 5% human serum. […]
(§3) The T cells columns indicate whether T cells were transduced with Luc90-CD828Z, Luc63-CD828Z, or were untransduced. The % CAR^+ in Table B-1 was determined by staining the T cells with Protein L. Except for the % CAR^+ column, all values are pg/mL of IFN-gamma. […]

U251 = assay: IFN-gamma ELISA, CAR T cells with U251 target cells; settings: Table B-2
Excerpt: as §1, §2, §3

Substance: Luc90-CD828Z: anti-SLAMF7 CAR (SEQ ID NO: 27): murine Luc90 scFv, human CD8a hinge and TM, CD28 and CD3ζ domains; tested as transduced T cells
- CD107a upregulation (degranulation) (SLAMF7^+ MM.1S cells): degranulated
- IFN-gamma, target cells Panc 10.05 (Panc 10.05): 36 pg/mL
- IFN-gamma, target cells U251 (U251): 27 pg/mL
